Tests used:
in vivo [1] = settings: BALB/c, mouse, iv, 3 mg/kg
in vivo [2] = settings: BALB/c, mouse, iv, 3 mg/kg; remark: listed apart in the source
in vivo [3] = settings: BALB/c, mouse, po, 10 mg/kg

`CC(C)CN1C[C@H](Cc2ccc(Cl)cc2)N(C2CCN(c3ccccn3)CC2)C[C@@H]1C` gave a clearance (in vivo [1]) of 69 mL/min/kg, a Vd (in vivo [2]) of 9.25 L/kg and a bioavailability (in vivo [3]) of 5.6%.
`Cc1ccnc(N2CCC(N3C[C@H](C)OC[C@@H]3Cc3ccc(Cl)cc3)CC2)c1` showed a clearance (in vivo [1]) of 58 mL/min/kg and a Vd (in vivo [2]) of 2.5 L/kg.

Reference: ChEMBL document CHEMBL5528077, “Structure-Based Discovery of High-Affinity Small Molecule Ligands and Development of Tool Probes to Study the Role of Chitinase-3-Like Protein 1” (J Med Chem, 2024)
